Experimental data reported in patent US8575213B2, “Pyrethrinoid-type esters as pesticides” (Sumitomo Chemical Company, Limited, priority 2010, dated 2013).

System: houseflies
Test: Knockdown test on houseflies, oil solution sprayed in a 70 cm cubic chamber
Format: in vivo
Conditions: 0.00625% (w/v) oil solution, 0.7 ml sprayed in cubic chamber of 70 cm side length, ten houseflies (5 of each male and female), repeated twice
Method: Each of the present invention compounds (1) and (2) (0.00625 parts) produced in the aforementioned Production
Examples was dissolved in 10 parts of dichloromethane and the resulting solution was mixed with 89.99375 parts of an isoparafin solvent (Isper M, registered trademark of Exxon Chemical Company) to prepare a 0.00625% (w/v) oil solution.
Ten houseflies (5 of each male and female) were released in a cubic chamber having a side length of 70 cm and then 0.7 ml of the present invention compound (1) was sprayed through a small window at an inlet of the chamber using a spray gun (spray pressure: 0.9 kg/cm^2). The number of knockdowned houseflies was counted after a given time had passed since completion of spraying, and a knockdown rate (KD rate) was determined (repeated twice). The test was carried out in the same manner, except that the present invention compound (2) was used in place of the present invention compound (1), and then a knockdown rate was determined after a given time (repeated twice).

| SMILES | Knockdown rate (%) after 7 minutes |
| --- | --- |
| C=C/C(C#N)=C/[C@@H]1[C@@H](C(=O)OCc2c(F)c(F)c(COC)c(F)c2F)C1(C)C [Present invention Compound (1), 4-methoxymethyl-2,3,5,6-tetrafluorobenzyl=(1R)-trans-3-[(1Z)-2-cyano-1,3-butadienyl]-2,2-dimethylcyclopropane carboxylate] | 100% |
| C/C=C/C(C#N)=C/[C@@H]1[C@@H](C(=O)OCc2c(F)c(F)c(COC)c(F)c2F)C1(C)C [Present invention compound (2), 4-methoxymethyl-2,3,5,6-tetrafluorobenzyl=(1R)-trans-3-[(1Z,3E)-2-cyano-1,3-pentadienyl]-2,2-dimethylcyclopropane carboxylate] | 100% |
